Results from patent publication US12116388B2, “Amylin receptor agonists” (Novo Nordisk A/S, priority 2022, dated 2024).
pEC50: −log10 of the molar value. Starred links: 1 amine or outer side, 2 acyl side, 3 side chain; linkers in the order of their positions; H or OH if unused. Residues, ends and D or L forms follow the SMILES beside them. *: point of attachment. C20 diacid = O=C(O)CCCCCCCCCCCCCCCCCCC(=O)*; C18 diacid = O=C(O)CCCCCCCCCCCCCCCCC(=O)*; γGlu = O=C(O)[C@H](CCC(=O)[*:2])N[*:1]

What was measured:
[1] = target: T1, human calcitonin receptor (hCTR) (Homo sapiens, UniProt P30988); test: Human calcitonin receptor (hCTR) in vitro potency assay, CRE-luciferase reporter in BHK cells; format: cell-based; settings: BHK hCTR/CRE-Luc cells, 3 hours incubation, assay buffer with 1% ovalbumin; read-out: hCalcR potency, EC50
T1 construct: host or cells: BHK (Baby Hamster Kidney), Hollex-1 cell line
T1 sequence (P30988 25-474): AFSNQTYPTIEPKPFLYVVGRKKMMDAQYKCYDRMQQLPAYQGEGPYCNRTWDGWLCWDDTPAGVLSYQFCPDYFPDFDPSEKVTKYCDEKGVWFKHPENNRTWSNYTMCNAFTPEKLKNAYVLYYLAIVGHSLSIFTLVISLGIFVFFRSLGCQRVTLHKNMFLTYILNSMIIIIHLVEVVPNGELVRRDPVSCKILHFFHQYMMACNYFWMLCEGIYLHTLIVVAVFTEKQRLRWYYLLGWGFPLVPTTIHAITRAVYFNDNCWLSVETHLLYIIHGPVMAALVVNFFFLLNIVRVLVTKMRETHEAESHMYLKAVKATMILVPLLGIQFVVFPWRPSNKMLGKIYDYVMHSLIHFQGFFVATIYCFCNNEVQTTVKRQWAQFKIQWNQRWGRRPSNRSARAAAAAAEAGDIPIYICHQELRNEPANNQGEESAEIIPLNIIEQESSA
From the text: (§1) Activation of hCTR leads to increased cellular concentrations of CAMP. Consequently, transcription is activated by promotors containing multiple copies of the CAMP response element (CRE). It is thus possible to measure hCTR activity using a CRE-luciferase reporter gene introduced into Baby Hamster Kidney (BHK) cells co-expressing the hCTR.
(§2) A BHK cell line was stably transfected with the human calcitonin receptor (a) and a CRE-responsive luciferase (CRE-Luc) reporter gene according to methods known to the person skilled in the art (Hollex-1 cell line, obtained from Zymogenetics described in U.S. Pat. No. 5,622,839).
(§3) Cells stocks were prepared by culturing of the stably transfected BHK hCTR/CRE-Luc cell line in growth medium consisting of DMEM (Gibco, 31966-021) supplemented with 10% FBS (Gibco, 16140-071), 1% Pen/Strep (Gibco, 15140-122), 0.5 mg/mL Geneticin (Gibco, 10131-027) and 250 nM Methotrexate (Sigma, A6770). Cells at approximately 80-90% confluence were washed once with PBS (Gibco 14190-094) and loosened from the cell flasks with Versene (Gibco, 15040-033) or TrypLE™ (Gibco, 12605-010). After centrifugation, the cell pellet was dissolved and diluted to approximately 2.5×10E6 cells/mL in Recovery™ Cell Culture Freezing Medium (Gibco, 12648-010). Cells were aliquoted and stored at −180° C. until use.
(§4) The assay buffer consisted of DMEM without phenol red (Gibco, 11880-028) supplemented with 1× GlutaMAX (Gibco, 35050-038), 10 mM HEPES (Gibco, 15630-056) and 1% (w/v) ovalbumin (Sigma, A5503).
(§5) To perform the assay, BHK hCTR/CRE-Luc cells were thawed, washed once in PBS and seeded in 40 μL growth medium in a white 384-well culture plate (PerkinElmer, 6007688) at a cell density of 4.000 cells/well on the day before the experiment. The plate was incubated over night at 37° C. in 5% CO2. On the day of the assay, cells were washed once in assay buffer. Serial dilutions (7-fold dilutions, 7 concentrations Pr. compound and one well containing only assay buffer) of comparator compounds and amylin analogues were performed in assay buffer often starting from approximately 10 nM in 96-well plates and 30 μL of each concentration added to the 384-well assay plate with cells. The assay plate was incubated for 3 hours at 37° C. in 5% CO2 after which 30 μL SteadyLite Plus (PerkinElmer, 6066759) was added to each well. The assay plate was sealed, incubated at room temperature with gentle shaking for 5 minutes followed by 30 minutes incubation without shaking while protected from light. Luminescence was detected on a luminescence plate reader e.g. a Synergy 2 (BioTek).

[2] = target: T2, human amylin receptor (hAMYR3) (Homo sapiens, UniProt O60896+P30988); test: Human amylin receptor (hAMYR3) in vitro potency assay, CRE-luciferase reporter in BHK cells; format: cell-based; settings: BHK hAMYR3/CRE-Luc cells, 3 hours incubation, assay buffer with 1% ovalbumin
T2 construct: host or cells: BHK (Baby Hamster Kidney), Hollex-1 cell line further transfected with RAMP3
From the text: as §1, with “hAMYR3” for “hCTR”, “cAMP.” for “CAMP.”, “hAMYR3.” for “hCTR.”
as §2, with “5,622,839). The cell line was further transfected with human receptor modifying protein 3 (RAMP3) using standard methods. This turns the human calcitonin receptor into a human amylin-3(a) receptor.” for “5,622,839).”
as §3, with “hAMYR3/CRE-Luc” for “hCTR/CRE-Luc”, “10131-027), 0.4 mg/mL Hygromycin (Invitrogen, 10687010)” for “10131-027)”
as §4
as §5, with “hAMYR3/CRE-Luc” for “hCTR/CRE-Luc”

T2 sequence (O60896 24-148, one chain of several): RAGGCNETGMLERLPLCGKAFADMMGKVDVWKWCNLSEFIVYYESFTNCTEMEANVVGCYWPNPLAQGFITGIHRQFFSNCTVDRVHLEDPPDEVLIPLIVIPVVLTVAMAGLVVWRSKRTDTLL

Row | pEC50 [1] | pEC50 [2] | Structure (SMILES)
1 | 11.70 | 11.73 | CC[C@H](C)[C@H](NC(=O)[C@H](C)NC(=O)CNC(=O)[C@H](Cc1ccccc1)NC(=O)[C@@H]1CCCN1C(=O)[C@H](CC(=O)O)NC(=O)[C@H](CO)NC(=O)[C@H](CO)NC(=O)[C@H](Cc1c[nH]cn1)NC(=O)[C@H](Cc1c[nH]cn1)NC(=O)[C@H](CC(C)C)NC(=O)[C@H](Cc1ccccc1)NC(=O)[C@H](CCC(=O)O)NC(=O)[C@H](C)NC(=O)[C@H](CC(C)C)NC(=O)[C@H](CCCNC(=N)N)NC(=O)[C@H](CCC(N)=O)NC(=O)[C@@H](NC(=O)[C@H](CCC(N)=O)NC(=O)[C@H](C)NC(=O)[C@@H](NC(=O)[C@H](C)NC(=O)[C@H](CC(C)C)NC(=O)[C@H](CC(N)=O)NC(=O)[C@H](CO)NC(=O)[C@H](C)NC(=O)CC[C@H](NC(=O)CCCCCCCCCCCCCCCCC(=O)O)C(=O)O)[C@@H](C)O)[C@@H](C)O)C(=O)N1CCC[C@H]1C(=O)N[C@@H](CO)C(=O)N[C@@H](CO)C(=O)N[C@H](C(=O)N[C@@H](CC(=O)O)C(=O)N[C@H](C(=O)NCC(=O)N1CCC[C@H]1C(=O)N[C@@H](CC(=O)O)C(=O)N[C@H](C(=O)N1CCC[C@H]1C(N)=O)[C@@H](C)O)C(C)C)[C@@H](C)O [Compound 12, N^1-[(4S)-4-carboxy-4-(17-carboxyheptadecanoylamino)butanoyl]-[Ala1,Ser2,Leu4,Ala7,Gln8,Glu14,His17,Asp21,Pro22,Pro27,Asp31,Pro34,Asp35,Pro37]-human amylin] ({C18 diacid-γGlu}-ASNLATAQTQRLAEFLHHSSDPFGAIPSSTDVGPDTP-NH2)
2 | 11.56 | 11.68 | CC[C@H](C)[C@H](NC(=O)[C@@H]1CCCN1C(=O)CNC(=O)[C@H](Cc1ccccc1)NC(=O)[C@H](Cc1c[nH]cn1)NC(=O)[C@H](Cc1c[nH]cn1)NC(=O)[C@H](CC(C)C)NC(=O)[C@H](Cc1ccccc1)NC(=O)[C@H](CCC(=O)O)NC(=O)[C@H](C)NC(=O)[C@H](CC(C)C)NC(=O)[C@H](CCCNC(=N)N)NC(=O)[C@H](C)NC(=O)[C@@H](NC(=O)[C@H](CCC(N)=O)NC(=O)[C@H](C)NC(=O)[C@@H](NC(=O)[C@H](CO)NC(=O)[C@H](CC(C)C)NC(=O)[C@H](Cc1c[nH]cn1)NC(=O)[C@H](CO)NC(=O)[C@H](C)NC(=O)CC[C@H](NC(=O)CCCCCCCCCCCCCCCCC(=O)O)C(=O)O)[C@@H](C)O)[C@@H](C)O)C(=O)N[C@@H](CC(C)C)C(=O)N1CCC[C@H]1C(=O)N1CCC[C@H]1C(=O)N[C@H](C(=O)N[C@@H](CC(=O)O)C(=O)N[C@H](C(=O)NCC(=O)N[C@@H](CO)C(=O)N[C@@H](CCC(=O)O)C(=O)N[C@H](C(=O)N[C@@H](Cc1ccc(O)cc1)C(N)=O)[C@@H](C)O)C(C)C)[C@@H](C)O [Compound 42, N^1-[(4S)-4-carboxy-4-(17-carboxyheptadecanoylamino)butanoyl]-[Ala1,Ser2,His3,Leu4,Ser5,Ala7,Gln8,Ala10,Glu14,His17,Pro25,Pro28,Pro29,Asp31,Glu35],des-(19-22)-human amylin] ({C18 diacid-γGlu}-ASHLSTAQTARLAEFLHHFGPILPPTDVGSETY-NH2)
3 | 11.83 | 11.96 | CC[C@H](C)[C@H](NC(=O)[C@@H]1CCCN1C(=O)CNC(=O)[C@H](Cc1ccccc1)NC(=O)[C@H](Cc1c[nH]cn1)NC(=O)[C@H](Cc1c[nH]cn1)NC(=O)[C@H](CC(C)C)NC(=O)[C@H](Cc1ccccc1)NC(=O)[C@H](CCC(=O)O)NC(=O)[C@H](C)NC(=O)[C@H](CC(C)C)NC(=O)[C@H](CCCNC(=N)N)NC(=O)[C@H](C)NC(=O)[C@@H](NC(=O)[C@H](CCC(N)=O)NC(=O)[C@H](C)NC(=O)[C@@H](NC(=O)[C@H](CO)NC(=O)[C@H](CC(C)C)NC(=O)[C@H](Cc1c[nH]cn1)NC(=O)[C@H](CO)NC(=O)[C@H](C)NC(=O)CC[C@H](NC(=O)CCCCCCCCCCCCCCCCCCC(=O)O)C(=O)O)[C@@H](C)O)[C@@H](C)O)C(=O)N[C@@H](CC(C)C)C(=O)N1CCC[C@H]1C(=O)N1CCC[C@H]1C(=O)N[C@H](C(=O)N[C@@H](CC(=O)O)C(=O)N[C@H](C(=O)NCC(=O)N[C@@H](CO)C(=O)N[C@@H](CCC(=O)O)C(=O)N[C@H](C(=O)N1CCC[C@H]1C(N)=O)[C@@H](C)O)C(C)C)[C@@H](C)O [Compound 5, N^1-[(4S)-4-carboxy-4-(19-carboxynonadecanoylamino)butanoyl]-[Ala1,Ser2,His3,Leu4,Ser5,Ala7,Gln8,Ala10,Glu14,His17,Pro25,Pro28,Pro29,Asp31,Glu35,Pro37],des-(19-22)-human amylin] ({C20 diacid-γGlu}-ASHLSTAQTARLAEFLHHFGPILPPTDVGSETP-NH2)
